Experimental data from US9527832B2, “Substituted condensed pyrimidine compounds” (GRÜNENTHAL GMBH, priority 2013, dated 2016).

Target: T1, human PDE4B1 (Homo sapiens, UniProt Q07343)
T1 construct: host or cells: Sf9 cells
Assay: cAMP HTRF assay to determine the activity of hPDE4B1
Assay type: biochemical
Settings: for inhibition at 1 µM: Percentage inhibition of PDE4B at 1 μM test concentration; for IC50: dose response measurements with eight concentrations, reported as ranges, read-out: IC50; for inhibition at 0.1 µM: Percentage inhibition of PDE4B at 0.1 μM test concentration, read-out: Inhibition [%] (inh. at 0.1 μM)
Method in brief: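 Sf9-expressed recombinant human PDE4B1 (4.8 U) in Tris-HCl/MgCl2/DTT/Tween 20 buffer pH 7.8, with cAMP at 40 nM final, 30 min at room temperature. Reaction stopped with IBMX 1 mM; remaining cAMP detected by HTRF (665/620 nm ratio). IC50 from eight-point dose-response, n=2.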

T1 sequence (Q07343 whole entry): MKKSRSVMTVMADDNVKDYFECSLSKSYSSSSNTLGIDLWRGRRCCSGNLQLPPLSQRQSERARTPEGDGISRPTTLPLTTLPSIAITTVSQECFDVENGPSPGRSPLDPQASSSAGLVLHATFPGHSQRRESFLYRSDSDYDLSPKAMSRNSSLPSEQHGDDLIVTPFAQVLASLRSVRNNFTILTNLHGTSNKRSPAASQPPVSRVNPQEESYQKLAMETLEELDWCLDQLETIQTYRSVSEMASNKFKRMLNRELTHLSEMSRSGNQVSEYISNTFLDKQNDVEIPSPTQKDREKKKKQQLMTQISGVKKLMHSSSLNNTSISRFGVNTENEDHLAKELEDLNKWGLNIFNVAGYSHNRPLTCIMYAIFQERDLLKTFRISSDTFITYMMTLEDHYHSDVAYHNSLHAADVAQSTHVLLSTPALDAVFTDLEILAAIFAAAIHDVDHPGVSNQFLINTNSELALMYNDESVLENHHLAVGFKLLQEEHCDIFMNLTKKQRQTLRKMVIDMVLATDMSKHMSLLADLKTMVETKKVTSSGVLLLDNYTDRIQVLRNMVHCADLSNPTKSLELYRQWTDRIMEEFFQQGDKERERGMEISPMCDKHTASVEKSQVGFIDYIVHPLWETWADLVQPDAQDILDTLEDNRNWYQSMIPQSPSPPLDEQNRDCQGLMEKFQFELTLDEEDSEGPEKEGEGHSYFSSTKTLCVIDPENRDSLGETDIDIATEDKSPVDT

| inhibition at 1 µM [%] | IC50 [nM] | inhibition at 0.1 µM [%] | SMILES |
| --- | --- | --- | --- |
| 65 | 100 to 1000 | – | CN(C(=O)COc1ccc2c(c1)N(c1nc(-c3ccc(Cl)s3)nc3c1CCC3)CC2)C1CC1 [Compound No. 2-64, 2-((1-(2-(5-Chlorothiophen-2-yl)-6,7-dihydro-5H-cyclopenta[d]pyrimidin-4-yl)indolin-6-yl)oxy)-N-cyclopropyl-N-methylacetamide] |
| 5 | – | – | O=C(COc1ccc2c(c1)N(c1nc(-c3ccc(Cl)s3)nc3c1CCC3)CC2)NC1COC1 [Compound No. 2-65, 2-((1-(2-(5-Chlorothiophen-2-yl)-6,7-dihydro-5H-cyclopenta[d]pyrimidin-4-yl)indolin-6-yl)oxy)-N-(oxetan-3-yl)acetamide] |
| 32 | – | – | CC(C)NC(=O)COc1ccc2c(c1)N(c1nc(-c3ccc(Cl)s3)nc3c1CCC3)CC2 [Compound No. 2-66, 2-((1-(2-(5-Chlorothiophen-2-yl)-6,7-dihydro-5H-cyclopenta[d]pyrimidin-4-yl)indolin-6-yl)oxy)-N-isopropylacetamide] |
| 6 | – | – | CN(CC1CC1)C(=O)COc1ccc2c(c1)N(c1nc(-c3ccc(Cl)s3)nc3c1CCC3)CC2 [Compound No. 2-67, 2-((1-(2-(5-Chlorothiophen-2-yl)-6,7-dihydro-5H-cyclopenta[d]pyrimidin-4-yl)indolin-6-yl)oxy)-N-(cyclopropylmethyl)-N-methylacetamide] |
| 2 | – | – | CCNC(=O)COc1ccc2c(c1)N(c1nc(-c3ccc(Cl)s3)nc3c1CCC3)CC2 [Compound No. 2-68, 2-((1-(2-(5-Chlorothiophen-2-yl)-6,7-dihydro-5H-cyclopenta[d]pyrimidin-4-yl)indolin-6-yl)oxy)-N-ethylacetamide] |
| 4 | – | – | O=C(COc1ccc2c(c1)N(c1nc(-c3ccc(Cl)s3)nc3c1CCC3)CC2)NCCO [Compound No. 2-69, 2-((1-(2-(5-Chlorothiophen-2-yl)-6,7-dihydro-5H-cyclopenta[d]pyrimidin-4-yl)indolin-6-yl)oxy)-N-(2-hydroxyethyl)acetamide] |
| 23 | – | – | CNC(=O)COc1ccc2c(c1)N(c1nc(-c3ccc(Cl)s3)nc3c1CCC3)CC2 [Compound No. 2-70, 2-((1-(2-(5-Chlorothiophen-2-yl)-6,7-dihydro-5H-cyclopenta[d]pyrimidin-4-yl)indolin-6-yl)oxy)-N-methylacetamide] |
| 14 | – | – | NC(=O)COc1ccc2c(c1)N(c1nc(-c3ccc(Cl)s3)nc3c1CCC3)CC2 [Compound No. 2-71, 2-((1-(2-(5-Chlorothiophen-2-yl)-6,7-dihydro-5H-cyclopenta[d]pyrimidin-4-yl)indolin-6-yl)oxy)acetamide] |
| 102 | < 100 | – | CN(C)C(=O)COc1ccc2cnn(-c3nc(-c4ccc(Cl)s4)nc4c3C[S+]([O-])C4)c2c1 (centres unmarked) [Compound No. 2-72, 2-((1-(2-(5-Chlorothiophen-2-yl)-6-oxido-5,7-dihydrothieno[3,4-d]pyrimidin-4-yl)-1H-indazol-6-yl)oxy)-N,N-dimethylacetamide] |
| 116 | < 100 | – | CN(C)C(=O)COc1ccc2ccn(-c3nc(-c4ccc(Cl)s4)nc4c3C[S+]([O-])C4)c2c1 (centres unmarked) [Compound No. 2-73, 2-((1-(2-(5-Chlorothiophen-2-yl)-6-oxido-5,7-dihydrothieno[3,4-d]pyrimidin-4-yl)-1H-indol-6-yl)oxy)-N,N-dimethylacetamide] |
| 92 | < 100 | – | CN(C)C(=O)COc1ccc2c(c1)N(c1nc(-c3ccc(C#N)c(F)c3)nc3c1C[S+]([O-])C3)CC2 (centres unmarked) [Compound No. 2-77, 2-((1-(2-(4-Cyano-3-fluorophenyl)-6-oxido-5,7-dihydrothieno[3,4-d]pyrimidin-4-yl)indolin-6-yl)oxy)-N,N-dimethylacetamide] |
| 105 | < 100 | – | CN(C)C(=O)COc1ccc2c(c1)N(c1nc(-c3ccc(Cl)c(F)c3)nc3c1C[S+]([O-])C3)CC2 (centres unmarked) [Compound No. 2-78, 2-((1-(2-(4-Chloro-3-fluorophenyl)-6-oxido-5,7-dihydrothieno[3,4-d]pyrimidin-4-yl)indolin-6-yl)oxy)-N,N-dimethylacetamide] |
| 92 | < 100 | – | CN(C)C(=O)COc1ccc2c(c1)N(c1nc(-c3ccc(O)c(F)c3)nc3c1C[S+]([O-])C3)CC2 (centres unmarked) [Compound No. 2-79, 2-((1-(2-(3-Fluoro-4-hydroxyphenyl)-6-oxido-5,7-dihydrothieno[3,4-d]pyrimidin-4-yl)indolin-6-yl)oxy)-N,N-dimethylacetamide] |
| – | < 100 | 101 | CN(C)C(=O)COc1ccc2c(c1)N(c1nc(-c3ccc(C(N)=O)s3)nc3c1C[S+]([O-])C3)CC2 (centres unmarked) [Compound No. 2-80, 5-(4-(6-(2-(Dimethylamino)-2-oxoethoxy)indolin-1-yl)-6-oxido-5,7-dihydrothieno[3,4-d]pyrimidin-2-yl)thiophene-2-carboxamide] |
| – | < 100 | 113 | CN(C)C(=O)COc1ccc2c(c1)N(c1nc(-c3ccc(C(N)=O)s3)nc3c1CS(=O)(=O)C3)CC2 [Compound No. 2-81, 5-(4-(6-(2-(Dimethylamino)-2-oxoethoxy)indolin-1-yl)-6,6-dioxido-5,7-dihydrothieno[3,4-d]pyrimidin-2-yl)thiophene-2-carboxamide] |
| 99 | < 100 | – | CN(C)C(=O)COc1ccc2c(c1)N(c1nc(-c3ccc(C#N)s3)nc3c1C[S+]([O-])C3)CC2 (centres unmarked) [Compound No. 2-82, 2-((1-(2-(5-Cyanothiophen-2-yl)-6-oxido-5,7-dihydrothieno[3,4-d]pyrimidin-4-yl)indolin-6-yl)oxy)-N,N-dimethylacetamide] |
| 97 | < 100 | – | CN(C)C(=O)COc1ccc2c(c1)N(c1nc(-c3ccc(C#N)s3)nc3c1CS(=O)(=O)C3)CC2 [Compound No. 2-83, 2-((1-(2-(5-Cyanothiophen-2-yl)-6,6-dioxido-5,7-dihydrothieno[3,4-d]pyrimidin-4-yl)indolin-6-yl)oxy)-N,N-dimethylacetamide] |
| 91 | < 100 | – | CN(C)C(=O)COc1ccc2c(c1)N(c1nc(-c3ccc(C#N)s3)nc3c1CCC3)CC2 [Compound No. 2-84, 2-((1-(2-(5-Cyanothiophen-2-yl)-6,7-dihydro-5H-cyclopenta[d]pyrimidin-4-yl)indolin-6-yl)oxy)-N,N-dimethylacetamide] |
| 111 | 100 to 1000 | – | CN(C)C(=O)COc1ccc2c(c1)N(c1nc(-c3ccc(Br)c(F)c3)nc3c1C[S+]([O-])C3)CC2 (centres unmarked) [Compound No. 2-86, 2-((1-(2-(4-Bromo-3-fluorophenyl)-6-oxido-5,7-dihydrothieno[3,4-d]pyrimidin-4-yl)indolin-6-yl)oxy)-N,N-dimethylacetamide] |
| 38 | – | – | O=C(COc1ccc2c(c1)N(c1nc(-c3ccc(Cl)s3)nc3c1CCC3)CC2)NC1CC1 [Compound No. 2-114, 2-((1-(2-(5-Chlorothiophen-2-yl)-6,7-dihydro-5H-cyclopenta[d]-pyrimidin-4-yl)indolin-6-yl)oxy)-N-cyclopropylacetamide] |
| 106 | < 100 | – | COc1ccc(-c2nc3c(c(N4CCc5ccc(OCC(=O)N(C)C)cc54)n2)CS(=N)(=O)C3)cc1F (centres unmarked) [Compound No. 2-115, 2-((1-(2-(3-Fluoro-4-methoxyphenyl)-6-imino-6-oxido-5,7-dihydrothieno[3,4-d]pyrimidin-4-yl)indolin-6-yl)oxy)-N,N-dimethylacetamide] |
| 121 | – | – | O=C(COc1ccc2c(c1)N(c1nc(-c3ccc(Cl)s3)nc3c1C[S+]([O-])C3)CC2)N1CCCC1 (centres unmarked) [Compound No. 2-116, 2-((1-(2-(5-Chlorothiophen-2-yl)-6-oxido-5,7-dihydrothieno[3,4-d]pyrimidin-4-yl)indolin-6-yl)oxy)-1-(pyrrolidin-1-yl)ethanone] |
| 93 | – | – | O=C(COc1ccc2c(c1)N(c1nc(-c3ccc(Cl)s3)nc3c1C[S+]([O-])C3)CC2)N1CCOCC1 (centres unmarked) [Compound No. 2-118, 2-((1-(2-(5-Chlorothiophen-2-yl)-6-oxido-5,7-dihydrothieno[3,4-d]pyrimidin-4-yl)indolin-6-yl)oxy)-1-morpholinoethanone] |
| 107 | – | – | COc1ccc(-c2nc3c(c(N4CCc5ccc(OCC(=O)N6CCCC6)cc54)n2)C[S+]([O-])C3)cc1F (centres unmarked) [Compound No. 2-119, 2-((1-(2-(3-Fluoro-4-methoxyphenyl)-6-oxido-5,7-dihydrothieno[3,4-d]pyrimidin-4-yl)indolin-6-yl)oxy)-1-(pyrrolidin-1-yl)ethanone] |
| 116 | – | – | O=C(COc1ccc2c(c1)N(c1nc(-c3ccc(F)s3)nc3c1C[S+]([O-])C3)CC2)N1CCCC1 (centres unmarked) [Compound No. 2-120, 2-((1-(2-(5-Fluorothiophen-2-yl)-6-oxido-5,7-dihydrothieno[3,4-d]pyrimidin-4-yl)indolin-6-yl)oxy)-1-(pyrrolidin-1-yl)ethanone] |
| 111 | – | – | COc1ccc(-c2nc3c(c(N4CCc5ccc(OCC(=O)N6CCCC6)cc54)n2)C[S+]([O-])C3)cc1 (centres unmarked) [Compound No. 2-121, 2-((1-(2-(4-Methoxyphenyl)-6-oxido-5,7-dihydrothieno[3,4-d]pyrimidin-4-yl)indolin-6-yl)oxy)-1-(pyrrolidin-1-yl)ethanone] |
| 40 | – | – | O=C(COc1ccc2c(c1)N(c1nc(-c3ccc(Cl)s3)nc3c1C[S+]([O-])C3)CC2)N1CCC1 (centres unmarked) [Compound No. 2-122, 1-(Azetidin-1-yl)-2-((1-(2-(5-chlorothiophen-2-yl)-6-oxido-5,7-dihydrothieno[3,4-d]pyrimidin-4-yl)indolin-6-yl)oxy)ethanone] |

| SMILES | inhibition at 1 µM [%] | IC50 [nM] | inhibition at 0.1 µM [%] |
| --- | --- | --- | --- |
| CN1CCN(C(=O)COc2ccc3c(c2)N(c2nc(-c4ccc(Cl)s4)nc4c2C[S+]([O-])C4)CC3)CC1 (centres unmarked) [Compound No. 2-117, 2-((1-(2-(5-Chlorothiophen-2-yl)-6-oxido-5,7-dihydrothieno[3,4-d]pyrimidin-4-yl)indolin-6-yl)oxy)-1-(4-methylpiperazin-1-yl)ethanone] | 88 | – | – |
